Patent US20180303809A1, “TREATMENT OF BURN PAIN BY TRPV1 MODULATORS” (Purdue Pharma L.P., priority 2013, published 2018)

Tests used:
Assay type in all cases: in vivo, rat
[1] = system: male Sprague-Dawley rats; assay: Paw pressure assay, mechanical hyperalgesia (PWT) in thermal burn pain model; settings: rat burn injury 55° C. 24 s, 30 mg/kg PO
Description: (§1) Test Animals: Each experiment used male Sprague-Dawley rats weighing between 190-260 g at the time of thermal burn injury. The rats were housed two per cage, and were allowed to acclimate to their environment for at least six days before testing began. The rats had free access to food and water at all times, except during testing and prior to oral (PO) administration of a test compound, when food was removed about 16 hours before dosing. The rats were divided into treatment groups, and one of the following compounds was administered to each group at the dose and by the route of administration indicated in Tables 5.2A to 5.2C, 5.3A and 5.3B, and 5.4A and 5.4B: ketorolac (Sigma-Aldrich, St. Louis, Mo.), AMG 517 (selective TRPV1 antagonist described in Em. Doherty et al., “Novel vanilloid receptor-1 antagonists:2. Structure-activity relationships of 4-oxopyrimidines leading to the selection of a clinical candidate,” J Med Chem 50:3515-3527 (2007).) (Purdue Pharma L. P., Cranbury, N.J.), indomethacin (Alexis Biochemicals, Farmingdale, N.Y.), gabapentin (Bosche Scientific, New Brunswick, N.J.), or (S)-3-chloro-5-(1,2-dihydroxyethyl)-N-(5-(trifluoromethyl)pyridin-2-yl)-5′,6′-dihydro-[2,4′-bipyridine]-1′(2′H)-carboxamide (Compound 1). The control groups were administered the vehicle for the compound of formula (I). The volume of administration for PO treatment was 5 ml/kg, and was the same for all treatment groups. Volume of administration for intraperitoneal (i.p.) drug administration was 2 ml/kg.
(§2) To assess the actions of a compound of formula (I) for the treatment or prevention of burn pain, a model of thermal burn pain was used. A thermal burn injury was induced under isofluorane/O2 inhalation anesthesia. To assess mechanical hyperalgesia and weight bearing, a thermal injury was produced by immersing the left hind paw into water maintained at 55° C. for 24 seconds. The left hind paw of non-injured control animals was immersed in 22° C. water for 24 seconds. To assess thermal hyperalgesia, a thermal injury was produced by immersing the left hindpaw into water maintained at 50° C. for 48 seconds; the left hind-paw of non-injured control animals was immersed in 22° C. water for 48 seconds. The animals were assessed for response to noxious mechanical stimuli by determining PWT for mechanical hyperalgesia, weight bearing difference between the injured or non-injured side, or response to noxious thermal stimuli by determining PWL for thermal hyperalgesia, all as described below, prior to drug administration (baseline), then again at 1, 3 and 5 hours after induction of burn injury.
The paw pressure assay was used to assess mechanical hyperalgesia. For this assay, hind paw withdrawal thresholds (PWT) to a noxious mechanical stimulus were determined using an analgesimeter (Model 7200, commercially available from Ugo Basile of Italy) as described in C. Stein, “Unilateral Inflammation of the Hindpaw in Rats as a Model of Prolonged Noxious Stimulation: Alterations in Behavior and Nociceptive Thresholds,” Pharmacol. Biochem. and Behavior 31:451-455 (1988). The rat's paw was placed on a small platform, and weight was applied in a graded manner up to a maximum of 250 grams. The endpoint was taken as the weight at which the paw was completely withdrawn. PWT was determined once for each rat at each time point, wherein the affected (ipsilateral; same side as the injury) rear paw was tested. […] All drug treatment groups were compared to the vehicle control group (i.e. injured, administered only the vehicle).

[2] = system: male Sprague-Dawley rats; assay: Plantar test, thermal hyperalgesia (PWL) in thermal burn pain model; settings: rat burn injury 50° C. 48 s, 30 mg/kg PO
Description: as §1, §2
The plantar test was used to assess thermal hyperalgesia. For this test, hind paw withdrawal latencies (PWL) to a noxious thermal stimulus were determined using a plantar test apparatus (commercially available from Ugo Basile of Italy) following the technique described by K. Hargreaves et al., “A New and Sensitive Method for Measuring Thermal Nociception in Cutaneous Hyperalgesia,” Pain 32(1):77-88 (1988). The maximum exposure time was set at 32 seconds to avoid tissue damage and any directed paw withdrawal from the heat source is taken as the end point. Three latencies were determined at each time point and averaged.

[3] = system: male Sprague-Dawley rats; assay: Hind limb weight bearing (incapacitance meter, % WL) in thermal burn pain model; settings: rat burn injury 55° C. 24 s, 30 mg/kg PO
Description: as §1, §2
A commercially available incapacitance meter was used to determine the weight distribution on the two hind paws of the animal (Linton Incapacitance Tester (Linton Instrumentation, Norfolk, UK)). The weight bearing difference (WBD) between the injured and non-injured hindpaw was measured. The animal was placed in the testing chamber that allows the animal to stand normally, distributing its body weight on the hind limbs for the test. Each hind paw was positioned on a separate pressure sensitive pad, which independently measures the pressure applied by each limb. The device continuously collects data after either a force threshold has been exceeded, or the investigator depresses the start pad. Rats were allowed to acclimate when placed on the apparatus, and when they were stationary, the force exerted was then continuously monitored for 3 s. The endpoint was the amount of pressure applied to each limb over time. Three readings were taken for each rat at each time point, and the average used for data analysis. WBD was expressed as “% WL”, i.e. the percentage of weight borne on the burn-injured left hind paw, using the following formula: […]
where WLP is the weight on the left hind paw and WRP is the weight on the right (untreated) hind paw. The 50% value of % WL corresponds to an equal weight distribution across both hind paws. […]

[4] = baseline (prior to drug administration)

## CC(=O)Nc1nc2c(Oc3cc(-c4ccc(C(F)(F)F)cc4)ncn3)cccc2s1 [AMG 517]
[1]; 1 h after administration
  % Decrease from Baseline (mean ± S.E.M.) of Paw Withdrawal Threshold: 61 ± 2.3%
  Paw Withdrawal Threshold (g) (mean ± S.E.M.): 94 ± 5.3 g
[1]; 3 h after administration
  % Decrease from Baseline (mean ± S.E.M.) of Paw Withdrawal Threshold: 52 ± 4.3%
  Paw Withdrawal Threshold (g) (mean ± S.E.M.): 115 ± 10.8 g
[1]; 5 h after administration
  % Decrease from Baseline (mean ± S.E.M.) of Paw Withdrawal Threshold: 65 ± 2.9%
  Paw Withdrawal Threshold (g) (mean ± S.E.M.): 86 ± 7.7 g
[1]; [4]
  Paw Withdrawal Threshold (g) (mean ± S.E.M.): 242 ± 6.0 g
[2]; 1 h after administration
  % Change from Baseline (mean ± S.E.M.) of Paw Withdrawal Latency: −50.1 ± 25.49%
  Paw Withdrawal Latency (sec) (mean ± S.E.M.): 8.6 ± 0.91 s
[2]; 3 h after administration
  % Change from Baseline (mean ± S.E.M.) of Paw Withdrawal Latency: −27.1 ± 16.54%
  Paw Withdrawal Latency (sec) (mean ± S.E.M.): 11.8 ± 0.66 s
[2]; 5 h after administration
  % Change from Baseline (mean ± S.E.M.) of Paw Withdrawal Latency: −24.8 ± 15.95%
  Paw Withdrawal Latency (sec) (mean ± S.E.M.): 12.1 ± 0.60 s
[2]; [4]
  Paw Withdrawal Latency (sec) (mean ± S.E.M.): 14.4 ± 1.35 s
[3]; 1 h after administration
  % WL (mean ± S.E.M.), percentage of weight borne on the burn-injured left hind paw: 39.2 ± 4.30 %
[3]; 3 h after administration
  % WL (mean ± S.E.M.), percentage of weight borne on the burn-injured left hind paw: 43.1 ± 2.82%
[3]; 5 h after administration
  % WL (mean ± S.E.M.), percentage of weight borne on the burn-injured left hind paw: 43.0 ± 3.37%
[3]; [4]
  % WL (mean ± S.E.M.), percentage of weight borne on the burn-injured left hind paw: 49.4 ± 0.44%
